Species on record: Rattus norvegicus
Test: Open TG-GATES - Regimen: Single
Assay type: toxicity, organism-based, Sprague-Dawley
Design: regimen Single, gender Male, age 6 weeks
Conditions: in vivo, po, 0 mg/kg, route gavage, dose level Control; for APTT / Bas / Eos / Fbg / Hb / Ht / Lym / MCH / MCHC / MCV / Mono / Neu / PT / Plat / RBC / Ret / WBC: tissue Blood; for KIDNEY_L / KIDNEY_R / KIDNEY_TOTAL: tissue Kidney; for LIVER: tissue Liver; for A/G / ALP / ALT / AST / BUN / CRE / Ca / Cl / DBIL / GLC / IP / K / LDH / Na / PL / RALB / TBIL / TC / TG / TP / gamma-GTP: tissue Plasma

With `CCOc1ccc(NC(=O)CC(C)O)cc1` (configuration not stated) [BUCETIN] the TERMINAL_BW (3 h) was 208.8 g, the APTT (3 h) was 14.7 s and the Bas (3 h) was 0%. It also gave an Eos (3 h) of 1%, a Fbg (3 h) of 294.8 mg/dL and a Hb (3 h) of 12.7 g/dL. For the same compound, the Ht (3 h) was 38.3%, the Lym (3 h) was 78.2% and the MCH (3 h) was 21.4 pg. The MCHC (3 h) was 33.2%, the MCV (3 h) was 64.5 fL and the Mono (3 h) was 3.2%. The Neu (3 h) was 17.2%, the PT (3 h) was 13.6 s and the Plat (3 h) was 115.4 x10_4/uL. For the same compound, the RBC (3 h) was 594.2 x10_4/ul, the Ret (3 h) was 8.7% and the WBC (3 h) was 84.1 x10_2/uL. For the same compound, the KIDNEY_L (3 h) was 0.9 g, the KIDNEY_R (3 h) was 0.9 g and the KIDNEY_TOTAL (3 h) was 1.8 g. It also gave an LIVER (3 h) of 9.1 g, an A/G (3 h) of 0.9 and an ALP (3 h) of 1389.8 IU/L. For the same compound, the ALT (3 h) was 35.8 IU/L, the AST (3 h) was 75 IU/L and the BUN (3 h) was 9.8 mg/dL. The CRE (3 h) was 0.2 mg/dL, the Ca (3 h) was 10.6 mg/dL and the Cl (3 h) was 105.2 meq/L. It also gave a DBIL (3 h) of 0.02 mg/dL, a GLC (3 h) of 178 mg/dL and an IP (3 h) of 8.6 mg/dL. The K (3 h) was 4.3 meq/L, the LDH (3 h) was 77.2 IU/L and the Na (3 h) was 141.8 meq/L. For the same compound, the PL (3 h) was 143.4 mg/dL, the RALB (3 h) was 2.5 g/dL and the TBIL (3 h) was 0.06 mg/dL. The TC (3 h) was 81.6 mg/dL, the TG (3 h) was 50.4 mg/dL and the TP (3 h) was 5.4 g/dL. For the same compound, the gamma-GTP (3 h) was 2 IU/L, the TERMINAL_BW (6 h) was 211.1 g and the APTT (6 h) was 16.7 s. The Bas (6 h) was 0.2%, the Eos (6 h) was 1% and the Fbg (6 h) was 303.8 mg/dL. It also gave a Hb (6 h) of 13.3 g/dL, a Ht (6 h) of 40% and a Lym (6 h) of 83.6%. It also gave an MCH (6 h) of 21.4 pg, an MCHC (6 h) of 33.3% and an MCV (6 h) of 64.4 fL. The Mono (6 h) was 1.8%, the Neu (6 h) was 13% and the PT (6 h) was 13.4 s. The Plat (6 h) was 117.3 x10_4/uL, the RBC (6 h) was 619.6 x10_4/ul and the Ret (6 h) was 8.6%. It also gave a WBC (6 h) of 97.2 x10_2/uL, a KIDNEY_L (6 h) of 0.9 g and a KIDNEY_R (6 h) of 0.9 g. It also gave a KIDNEY_TOTAL (6 h) of 1.9 g, an LIVER (6 h) of 8.9 g and an A/G (6 h) of 0.9. For the same compound, the ALP (6 h) was 1305.2 IU/L, the ALT (6 h) was 32.4 IU/L and the AST (6 h) was 66.4 IU/L. For the same compound, the BUN (6 h) was 8.8 mg/dL, the CRE (6 h) was 0.2 mg/dL and the Ca (6 h) was 10.8 mg/dL. For the same compound, the Cl (6 h) was 105.6 meq/L, the DBIL (6 h) was 0.016 mg/dL and the GLC (6 h) was 178.2 mg/dL. For the same compound, the IP (6 h) was 9.2 mg/dL, the K (6 h) was 4.3 meq/L and the LDH (6 h) was 70.4 IU/L. For the same compound, the Na (6 h) was 142.8 meq/L, the PL (6 h) was 143.2 mg/dL and the RALB (6 h) was 2.5 g/dL. It also gave a TBIL (6 h) of 0.058 mg/dL, a TC (6 h) of 77.6 mg/dL and a TG (6 h) of 62.8 mg/dL. For the same compound, the TP (6 h) was 5.4 g/dL, the gamma-GTP (6 h) was 1.4 IU/L and the TERMINAL_BW (9 h) was 208.6 g. For the same compound, the APTT (9 h) was 17.3 s, the Bas (9 h) was 0% and the Eos (9 h) was 1%. The Fbg (9 h) was 299.8 mg/dL, the Hb (9 h) was 13 g/dL and the Ht (9 h) was 39.1%. For the same compound, the Lym (9 h) was 79.8%, the MCH (9 h) was 21.3 pg and the MCHC (9 h) was 33.2%. It also gave an MCV (9 h) of 64.3 fL, a Mono (9 h) of 2.6% and a Neu (9 h) of 16.6%. It also gave a PT (9 h) of 14.3 s, a Plat (9 h) of 114.6 x10_4/uL and an RBC (9 h) of 608.6 x10_4/ul. It also gave a Ret (9 h) of 8.1%, a WBC (9 h) of 87.3 x10_2/uL and a KIDNEY_L (9 h) of 0.9 g. The KIDNEY_R (9 h) was 0.9 g, the KIDNEY_TOTAL (9 h) was 1.8 g and the LIVER (9 h) was 8.3 g. It also gave an A/G (9 h) of 0.9, an ALP (9 h) of 1557.4 IU/L and an ALT (9 h) of 32.8 IU/L. For the same compound, the AST (9 h) was 68.6 IU/L, the BUN (9 h) was 9.4 mg/dL and the CRE (9 h) was 0.2 mg/dL. It also gave a Ca (9 h) of 10.5 mg/dL, a Cl (9 h) of 106 meq/L and a DBIL (9 h) of 0.018 mg/dL. For the same compound, the GLC (9 h) was 178.6 mg/dL, the IP (9 h) was 9.8 mg/dL and the K (9 h) was 4 meq/L. It also gave an LDH (9 h) of 70.2 IU/L, a Na (9 h) of 142.2 meq/L and a PL (9 h) of 135 mg/dL. For the same compound, the RALB (9 h) was 2.6 g/dL, the TBIL (9 h) was 0.06 mg/dL and the TC (9 h) was 73.8 mg/dL. It also gave a TG (9 h) of 57.2 mg/dL, a TP (9 h) of 5.4 g/dL and a gamma-GTP (9 h) of 1.4 IU/L. The TERMINAL_BW (24 h) was 224 g, the APTT (24 h) was 18.6 s and the Bas (24 h) was 0.2%. It also gave an Eos (24 h) of 0.8%, a Fbg (24 h) of 290.6 mg/dL and a Hb (24 h) of 13.4 g/dL. For the same compound, the Ht (24 h) was 40.5%, the Lym (24 h) was 79% and the MCH (24 h) was 21.3 pg. It also gave an MCHC (24 h) of 33%, an MCV (24 h) of 64.4 fL and a Mono (24 h) of 2.6%. The Neu (24 h) was 16.6%, the PT (24 h) was 14.3 s and the Plat (24 h) was 121.1 x10_4/uL. The RBC (24 h) was 628.8 x10_4/ul, the Ret (24 h) was 7.6% and the WBC (24 h) was 102.9 x10_2/uL. For the same compound, the KIDNEY_L (24 h) was 1 g, the KIDNEY_R (24 h) was 1 g and the KIDNEY_TOTAL (24 h) was 2 g. For the same compound, the LIVER (24 h) was 10.4 g, the A/G (24 h) was 0.9 and the ALP (24 h) was 1587.4 IU/L. For the same compound, the ALT (24 h) was 40.4 IU/L, the AST (24 h) was 72.2 IU/L and the BUN (24 h) was 14.6 mg/dL. For the same compound, the CRE (24 h) was 0.2 mg/dL, the Ca (24 h) was 11.1 mg/dL and the Cl (24 h) was 105.2 meq/L. The DBIL (24 h) was 0.022 mg/dL, the GLC (24 h) was 180.8 mg/dL and the IP (24 h) was 7.9 mg/dL. The K (24 h) was 4.1 meq/L, the LDH (24 h) was 74.6 IU/L and the Na (24 h) was 143.6 meq/L. For the same compound, the PL (24 h) was 148.2 mg/dL, the RALB (24 h) was 2.6 g/dL and the TBIL (24 h) was 0.05 mg/dL. The TC (24 h) was 76.2 mg/dL, the TG (24 h) was 104.2 mg/dL and the TP (24 h) was 5.6 g/dL. For the same compound, the gamma-GTP (24 h) was 1.2 IU/L.
